Laboratory results: patent publication US11530244B2, “Cyclic polypeptides for PCSK9 inhibition” (priority 2018, dated 2022)
Starred links: 1 amine or outer side, 2 acyl side, 3 side chain; linkers in the order of their positions; H or OH if unused. Positions of bridges follow the written chain, without caps; N, C: chain ends. Non-standard residues stand in square brackets, D forms with d. Residues, ends and D or L forms follow the SMILES beside them. ξ: configuration not given here. Phe(3-CH2NH2) = O=C([C@H](Cc1cccc(CN[*:3])c1)N[*:1])[*:2]; NHCH2(1,3-C6H4)CH2CO = O=C(Cc1cccc(CN[*:1])c1)[*:2]; Trp(5-F) = N[C@@H](Cc1c[nH]c2ccc(F)cc12)C(=O)O; Phe(4-CH2NH2) = NCc1ccc(C[C@H](N)C(=O)O)cc1; ξPhe(4-COOH) = NC(Cc1ccc(C(=O)O)cc1)C(=O)O; X4 = O=C(CCSCc1cccc(CSCCN[*:1])c1)[*:2]; γGlu = O=C(O)[C@H](CCC(=O)[*:2])N[*:1]; mXylylene = c1cc(C[*:1])cc(C[*:2])c1; Glutaryl = O=C(CCCC(=O)[*:2])[*:1]; X8 = Clc1cc(C[*:1])cc(C[*:2])c1; Cha = N[C@@H](CC1CCCCC1)C(=O)O; aThr = C[C@H](O)[C@H](N)C(=O)O; NMeL = CN[C@@H](CC(C)C)C(=O)O; αMeP = C[C@@]1(C(=O)O)CCCN1; dOrn = NCCC[C@@H](N)C(=O)O; hSer = N[C@@H](CCO)C(=O)O; ξD = NC(CC(=O)O)C(=O)O; X2 = O=C(C[*:2])[*:1]; Mpa = O=C(O)CCS

Columns and labels:
Assay type in all cases: binding
PCSK9 [1] = target: T1, PCSK9 (Homo sapiens (Human), UniProt Q8NBP7); test: PCSK9 Alexa FRET Standard assay (displacement of AlexaFluor647 tagged cyclic peptide Reagent A); conditions: PCSK9 Alexa FRET Standard assay, 0.5 nM PCSK9, 20 nM AF cyclic peptide Reagent A; read-out: IC50
T1 sequence (Q8NBP7 153-692): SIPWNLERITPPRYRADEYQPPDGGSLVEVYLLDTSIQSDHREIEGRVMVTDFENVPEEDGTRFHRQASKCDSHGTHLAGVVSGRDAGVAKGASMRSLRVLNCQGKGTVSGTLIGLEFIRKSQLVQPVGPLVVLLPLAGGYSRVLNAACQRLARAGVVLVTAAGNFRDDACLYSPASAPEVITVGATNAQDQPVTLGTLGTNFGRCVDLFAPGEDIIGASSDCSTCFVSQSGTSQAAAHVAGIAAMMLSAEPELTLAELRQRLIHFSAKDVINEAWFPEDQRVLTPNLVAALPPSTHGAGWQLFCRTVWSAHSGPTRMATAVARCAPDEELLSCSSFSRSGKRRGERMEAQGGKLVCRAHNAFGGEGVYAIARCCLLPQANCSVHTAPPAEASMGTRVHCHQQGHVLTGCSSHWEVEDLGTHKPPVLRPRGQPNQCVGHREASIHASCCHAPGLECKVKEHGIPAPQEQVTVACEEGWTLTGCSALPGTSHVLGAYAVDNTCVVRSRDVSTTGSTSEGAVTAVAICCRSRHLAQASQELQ
How it was run: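 TR-FRET displacement: 0.5 nM biotinylated PCSK9 with 1.25 nM Strep-Eu and 20 nM AlexaFluor-tagged cyclic peptide (final) in 50 mM HEPES pH 7.4, 0.15 M NaCl, 5 mM CaCl2, 0.01% BSA, 0.01% P20, ≥2 h at room temperature. IC50 from sigmoidal fit, converted to Ki via peptide KD; falling Eu counts flagged false positives.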

[2] = target: human PCSK9 / human LDLR EGFa domain interaction (Homo sapiens (Human), UniProt Q8NBP7); test: TR-FRET assay of inhibition of the PCSK9-LDLR protein-protein interaction; conditions: TR-FRET, 20 nM human PCSK9, 20 nM human LDLR EGFa domain, 2 hours room temperature; read-out: IC50
Sequence of human PCSK9 / human LDLR EGFa domain interaction (Q8NBP7 153-692): as above
Sequence of human PCSK9 / human LDLR EGFa domain interaction (Q8NBP7 31-152 partner): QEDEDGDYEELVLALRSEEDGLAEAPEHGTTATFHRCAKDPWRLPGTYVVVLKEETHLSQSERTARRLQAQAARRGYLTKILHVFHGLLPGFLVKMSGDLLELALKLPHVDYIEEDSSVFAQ
How it was run: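 20 nM biotin-avitag PCSK9 + 20 nM His-LDLR EGFa; 5 nM Ulight-SA / 5 nM Eu-anti-His; 2 h RT; HEPES 50 mM, NaCl 150 mM, CaCl2 5 mM, 0.01% BSA, 0.01% P20. Half-maximal inhibition, 4-parameter fit.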

PCSK9 [3] = target: T1, PCSK9; test: PCSK9 Alexa FRET Plus assay (displacement of AlexaFluor647 tagged cyclic peptide Reagent B); conditions: Alexa FRET Plus, 0.5 nM PCSK9, 960 nM AF cyclic peptide Reagent B; read-out: IC50
How it was run: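 TR-FRET displacement with final 0.5 nM biotinylated PCSK9, 1.25 nM Strep-Eu and 960 nM AlexaFluor-tagged cyclic peptide in HEPES pH 7.4, NaCl, CaCl2, BSA, P20; ≥2 h at room temperature. IC50 from sigmoidal fit, converted to Ki using peptide KD. Falling europium counts flagged false positives.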

Row | Compound | IC50 (PCSK9 [1]) | IC50 [2] | IC50 (PCSK9 [3])
1 | COc1ccc(C[C@@H]2NC(=O)[C@H](Cc3cnc[nH]3)NC(=O)[C@H](CC(=O)O)NC(=O)[C@H](Cc3c[nH]c4ccc(F)cc34)NC(=O)[C@H](Cc3c[nH]c4ccc(F)cc34)NC(=O)[C@@H](C)NC(=O)[C@H](NC(C)=O)CCCCNC(=O)Cc3cccc(c3)CNC(=O)CC[C@@H](C(=O)O)NC(=O)[C@]3(C)CCCN3C2=O)cc1 [Compound 396] (Ac-[dK][dA][Trp(5-F)][Trp(5-F)]DHY(Me)[αMeP][γGlu][NHCH2(1,3-C6H4)CH2CO]; lactam 1-C) | 0.11 to 100 nM | 0.1 to 100 nM | 100 to 500 nM
2 | CC(=O)N[C@H]1CCCCNC(=O)COc2ccc(cc2)C[C@@H](C(N)=O)NC(=O)[C@]2(C)CCCN2C(=O)[C@H](Cc2ccc(O)cc2)NC(=O)[C@H](Cc2cnc[nH]2)NC(=O)[C@H](CC(=O)O)NC(=O)[C@H](Cc2c[nH]c3ccc(F)cc23)NC(=O)[C@H](Cc2c[nH]c3ccc(F)cc23)NC(=O)CNC1=O [Compound 365] (Ac-KG[Trp(5-F)][Trp(5-F)]DHY[αMeP]Y-NH2; linker 1-9 via X2) | 0.11 to 100 nM | 0.1 to 100 nM | 0.1 to 100 nM
3 | COc1ccc(C[C@@H]2NC(=O)[C@@H](CC(C)C)NC(=O)[C@H]([C@@H](C)OC)NC(=O)CCSCc3cccc(c3)CSC[C@@H](C(N)=O)NC(=O)[C@]3(C)CCCN3C(=O)[C@H](Cc3ccc(OC)cc3)NC(=O)[C@H]([C@@H](C)OC)NC(=O)[C@H](CC(C)C)N(C)C(=O)[C@H](Cc3ccc(OC)cc3)NC2=O)cc1 [Compound 035] ([Mpa]T(Me)[dL]Y(Me)Y(Me)[NMeL]T(Me)Y(Me)[αMeP]C-NH2; linker 1-10 via mXylylene) | 0.11 to 100 nM | 0.1 to 100 nM | 0.1 to 100 nM
4 | CC(=O)N[C@@H]1CCCNC(=O)c2ccc(cc2)CC(C(N)=O)NC(=O)[C@]2(C)CCCN2C(=O)[C@H](Cc2ccc(O)cc2)NC(=O)[C@H](Cc2cnc[nH]2)NC(=O)[C@H](CC(=O)O)NC(=O)[C@H](Cc2c[nH]c3ccc(F)cc23)NC(=O)[C@H](Cc2c[nH]c3ccc(F)cc23)NC(=O)CNC1=O (stereo partly drawn) [Compound 327] (Ac-[dOrn]G[Trp(5-F)][Trp(5-F)]DHY[αMeP][ξPhe(4-COOH)]-NH2; lactam 1-9) | 0.11 to 100 nM | 0.1 to 100 nM | 100 to 500 nM
5 | CO[C@@H](C)[C@@H]1NC(=O)CCSCc2cccc(c2)CSC[C@@H](C(N)=O)NC(=O)[C@]2(C)CCCN2C(=O)[C@H](Cc2ccc(O)cc2)NC(=O)[C@H](Cc2cnc[nH]2)NC(=O)[C@H](CC(=O)O)NC(=O)[C@H](Cc2c[nH]c3ccc(F)cc23)NC(=O)[C@H](Cc2c[nH]c3ccc(F)cc23)NC(=O)CNC1=O [Compound 377] ([Mpa][aThr](Me)G[Trp(5-F)][Trp(5-F)]DHY[αMeP]C-NH2; linker 1-10 via mXylylene) | 0.11 to 100 nM | 0.1 to 100 nM | 100 to 500 nM
6 | C[C@@]12CCCN1C(=O)[C@H](Cc1ccc(O)cc1)NC(=O)[C@H](Cc1c[nH]cn1)NC(=O)[C@H](CC(=O)O)NC(=O)[C@H](Cc1c[nH]c3ccc(F)cc13)NC(=O)[C@H](Cc1c[nH]c3ccc(F)cc13)NC(=O)CNC(=O)[C@H](CCCCN)NC(=O)CCSCc1cc(Cl)cc(c1)CSC[C@@H](C(N)=O)NC2=O [Compound 358] ([Mpa]KG[Trp(5-F)][Trp(5-F)]DHY[αMeP]C-NH2; linker 1-10 via X8) | 0.11 to 100 nM | 0.1 to 100 nM | 100 to 500 nM
7 | COc1ccc(C[C@@H]2NC(=O)[C@H](Cc3cnc[nH]3)NC(=O)[C@H](CC(=O)O)NC(=O)[C@H](Cc3c[nH]c4ccc(F)cc34)NC(=O)[C@H](Cc3c[nH]c4ccc(F)cc34)NC(=O)[C@@H](C)NC(=O)Cc3cccc(c3)CNC(=O)CC(C(=O)O)NC(=O)[C@]3(C)CCCN3C2=O)cc1 (stereo partly drawn) [Compound 401] ([NHCH2(1,3-C6H4)CH2CO][dA][Trp(5-F)][Trp(5-F)]DHY(Me)[αMeP][ξD]-OH; lactam N-9) | 0.11 to 100 nM | 0.1 to 100 nM | 0.1 to 100 nM
8 | CC(C)C[C@@H]1NC(=O)[C@@H]2CCCN2C(=O)[C@H](Cc2c[nH]c3ccc(F)cc23)NC(=O)[C@H](Cc2c[nH]c3ccc(F)cc23)NC(=O)CNC(=O)[C@H](CCCCN)NC(=O)CCSCc2cccc(c2)CSC[C@@H](C(N)=O)NC(=O)[C@]2(C)CCCN2C(=O)[C@H](Cc2ccc(O)cc2)NC1=O [Compound 004] ([Mpa]KG[Trp(5-F)][Trp(5-F)]PLY[αMeP]C-NH2; linker 1-10 via mXylylene) | 0.11 to 100 nM | 0.1 to 100 nM | 100 to 500 nM
9 | NCCCC[C@@H]1NC(=O)CCSCc2cccc(c2)CSC[C@@H](C(N)=O)NC(=O)[C@@H]2CCCN2C(=O)[C@H](Cc2ccc(O)cc2)NC(=O)[C@H](Cc2c[nH]cn2)NC(=O)[C@H](CC(=O)O)NC(=O)[C@H](Cc2c[nH]c3ccc(F)cc23)NC(=O)[C@H](CC2CCCCC2)NC(=O)CNC1=O [Compound 223] ([Mpa]KG[Cha][Trp(5-F)]DHYPC-NH2; linker 1-10 via mXylylene) | 0.11 to 100 nM | 0.1 to 100 nM | 100 to 500 nM
10 | COc1ccc(C[C@@H]2NC(=O)[C@H](Cc3ccc(OC)cc3)NC(=O)[C@@H](CC(C)C)NC(=O)[C@H]([C@@H](C)OC)NC(=O)CCSCc3cccc(c3)CSC[C@@H](C(N)=O)NC(=O)[C@@H]3CCCN3C(=O)[C@H](Cc3ccc(OC)cc3)NC(=O)[C@H](Cc3ccc(OC)cc3)NC(=O)[C@H](CC(C)C)NC2=O)cc1 [Compound 034] ([Mpa]T(Me)[dL]Y(Me)Y(Me)LY(Me)Y(Me)PC-NH2; linker 1-10 via mXylylene) | 0.11 to 100 nM | 0.1 to 100 nM | 0.1 to 100 nM
11 | C[C@@]12CCCN1C(=O)[C@H](Cc1ccc(O)cc1)NC(=O)[C@H](Cc1cnc[nH]1)NC(=O)[C@H](CC(=O)O)NC(=O)[C@H](Cc1c[nH]c3ccc(F)cc13)NC(=O)[C@H](Cc1c[nH]c3ccc(F)cc13)NC(=O)CNC(=O)[C@H](CCO)NC(=O)CCSCc1cccc(c1)CSC[C@@H](C(N)=O)NC2=O [Compound 376] ([Mpa][hSer]G[Trp(5-F)][Trp(5-F)]DHY[αMeP]C-NH2; linker 1-10 via mXylylene) | 0.11 to 100 nM | 0.1 to 100 nM | 100 to 500 nM
12 | C[C@@H]1NC(=O)CCCC(=O)NCc2ccc(cc2)C[C@@H](C(N)=O)NC(=O)[C@]2(C)CCCN2C(=O)[C@H](Cc2ccc(O)cc2)NC(=O)[C@H](Cc2cnc[nH]2)NC(=O)[C@H](CC(=O)O)NC(=O)[C@H](Cc2c[nH]c3ccc(F)cc23)NC(=O)[C@H](Cc2c[nH]c3ccc(F)cc23)NC(=O)CNC1=O [Compound 366] (AG[Trp(5-F)][Trp(5-F)]DHY[αMeP][Phe(4-CH2NH2)]-NH2; linker N-9 via Glutaryl) | 0.11 to 100 nM | 0.1 to 100 nM | 0.1 to 100 nM
13 | COc1ccc(C[C@@H]2NC(=O)[C@H]([C@@H](C)OC)NC(=O)[C@H](CCC(=O)O)NC(=O)[C@H](Cc3c[nH]c4ccc(F)cc34)NC(=O)[C@H](Cc3cccc(CN)c3)NC(=O)[C@@H](C)NC(=O)[C@H](C)NC(=O)CCSCc3cccc(c3)CSCCNC(=O)[C@]3(C)CCCN3C2=O)cc1 [Compound 343] (cyclo(A[dA][Phe(3-CH2NH2)][Trp(5-F)]ET(Me)Y(Me)[αMeP][X4])) | 0.11 to 100 nM | 0.1 to 100 nM | 0.1 to 100 nM
